Experiments:
[1] = test system: slowly-inactivating A-type K^+ channel; test: Voltage clamp, slowly-inactivating A-type K+ currents in Fast Blue-labeled capsaicin-sensitive bladder afferent neurons; type: cell-based, rat; settings: Compound 1 1.0 × 10^−6 mol/L
Procedure: (§1) Experiments were performed on adult female Sprague Dawley rats. First and second series of the experiments were performed, respectively, in unidentified DRG neurons and a specific population of DRG neurons innervating the urinary bladder. The population of DRG neurons that innervate the urinary bladder were labeled by retrograde axonal transport of the fluorescent dye, Fast Blue (4% w/v) (Polyloy, Gross Umstadt, Germany), injected into the wall of the bladder in halothane-anesthetized animals 7 days before the dissociation. The dye was injected with a 28 gauge needle at three to six sites on the dorsal surface of the organ (5–6 μL per site, total volume of 20–30 μL). Each injection site was washed with saline to minimize contamination of adjacent organs with the dye.
Freshly dissociated neurons from DRG were prepared from halothane-anesthetized animals. […]
Dye-labeled primary afferent neurons that innervate the urinary bladder were identified using an inverted phase-contrast microscope (Nikon, Tokyo, Japan) with fluorescent attachments (UV-1A filter; excitation wavelength, 365 nm). […] All recordings were made with an Axopatch-1D patch-clamp amplifier (Axon Instruments, Foster City, Calif.), and data were acquired and analyzed by PCLAMP software (Axon Instruments).
In voltage-clamp recordings, outward K^+ currents and inward Na^+ currents were measured. […]

[2] = test system: delayed rectifier K^+ channel; test: Voltage clamp, delayed rectifier K+ currents (HP −20 mV) in unidentified DRG neurons; type: cell-based, rat; settings: for K+ current HP: −20 mV (delayed rectifier), relative value (before drug = 1): unidentified DRG neurons
Procedure: as §1
Freshly dissociated neurons from DRG were prepared from halothane-anesthetized animals. L6 and S1 DRG were dissected from animals and then dissociated in a shaking bath for 25 minutes at 35° C. with 5 mL DMEM (Sigma) containing 0.3 mg/mL trypsin (Type 3, Sigma), 1 mg/mL collagenase (Type 1, Sigma), and 0.1 mg/mL deoxyribonuclease (Type 4, Sigma). Trypsin inhibitor (Type 2a, Sigma) was then added thereto to neutralize the activity of trypsin. Individual DRG cell bodies were isolated by trituration and then plated on a poly-L-lysine-coated 35 mm Petri dishes.
Dye-labeled primary afferent neurons that innervate the urinary bladder were identified using an inverted phase-contrast microscope (Nikon, Tokyo, Japan) with fluorescent attachments (UV-1A filter; excitation wavelength, 365 nm). Gigaohm-seal whole-cell recordings were performed at room temperature (20–22° C.) on each labeled neuron in a culture dish that usually contained three to seven labeled cells among a few hundred unlabeled neurons. The internal solution contained (in mmol/L): KCl 140, CaCl2 1, MgCl2 2, EGTA 11, HEPES 10, Mg-ATP 2, and Tris-GTP 0.4 adjusted to pH 7.4 with KOH. Patch electrodes had resistances of 1–4 M Ω when filled with the internal solution. Neurons were superfused at a flow rate of 1.5 mL/minutes with an external solution containing (in mmol/L): NaCl 150, KCl 5, CaCl2 2.5, MgCl2 1, HEPES 10, and D-glucose 10, adjusted to pH 7.4 with NaOH. All recordings were made with an Axopatch-1D patch-clamp amplifier (Axon Instruments, Foster City, Calif.), and data were acquired and analyzed by PCLAMP software (Axon Instruments).
In voltage-clamp recordings, outward K^+ currents and inward Na^+ currents were measured. For the isolation of K^+ currents, the external solution was changed to one containing (in mmol/L): choline-Cl 150, KOH 5, CaCl2 0.03, HEPES 10, Mg(OH)2 3, and D-glucose 10, adjusted to pH 7.4 with HCl.
In first series of experiments using unidentified DRG neurons, outward K^+ currents were evoked by voltage steps to +60 mV, 800 ms long from a holding potentials of −90 mV, this was followed by a 1-second conditioning pre-pulse to −20 mV followed by a second pulse to +60 mV, identical to the first in the sequence. In the second series of experiments using Fast Blue-labeled bladder afferent neurons, slowly-inactivating A-type K^+ currents were isolated by subtraction of outward K^+ currents activated from a holding potential of −40 mV (on the condition of inactivation of the majority of slowly-inactivating A-type K^+ currents) from those activated from a holding potential of −120 mV (on the condition of full activation of slowly-inactivating A-type K^+ currents). A compound was added cumulatively, starting with a lower concentration. Currents were measured at the maximum (peak) and normalized to control (before addition of the compound).
The currents at a holding potential (HP) of −90 mV are results of the measurement of slowly-inactivating A-type K^+ currents, and the currents at an HP value of −20 mV are results of the measurement of delayed rectifier K^+ currents. […]

With `C[C@](O)(C(=O)Nc1cccc2c1C(=O)c1sccc1CS2(=O)=O)C(F)(F)F` [Compound 1, (S)-(+)-N-(5,5-dioxido-10-oxo-4,10-dihydrothieno[3,2-c][1]benzothiepin-9-yl)-3,3,3-trifluoro-2-hydroxy-2-methylpropanamide] the “A-type IK (HP: −120 mV) − (HP: −40 mV), normalized to control” value [1] was 1.26 ± 0.03, the “K+ current HP: −20 mV, relative value (before drug = 1)” value (from here on “K+ current HP: −20 mV, relative value”) ([2]; Compound 1 1.0 × 10^−5 mol/L, in the presence of 5 μmol/L verapamil) was 1.00 ± 0.02 and the “K+ current HP: −20 mV, relative value” value ([2]; Compound 1 1.0 × 10^−5 mol/L, in the presence of 20 mmol/L tetraethylammonium) was 1.01 ± 0.02. For the same compound, the “K+ current HP: −20 mV (delayed rectifier), relative value (before drug = 1)” value ([2]; Compound 1 1.0 × 10^−5 mol/L) was 0.88 ± 0.07, the “K+ current HP: −20 mV, relative value” value ([2]; Compound 1 1.0 × 10^−6 mol/L, in the presence of 5 μmol/L verapamil) was 1.00 ± 0.01 and the “K+ current HP: −20 mV, relative value” value ([2]; Compound 1 1.0 × 10^−6 mol/L, in the presence of 20 mmol/L tetraethylammonium) was 1.00 ± 0.00. The “K+ current HP: −20 mV (delayed rectifier), relative value (before drug = 1)” value ([2]; Compound 1 1.0 × 10^−6 mol/L) was 1.00 ± 0.02, the “K+ current HP: −20 mV, relative value” value ([2]; Compound 1 1.0 × 10^−7 mol/L, in the presence of 5 μmol/L verapamil) was 1.00 ± 0.01 and the “K+ current HP: −20 mV, relative value” value ([2]; Compound 1 1.0 × 10^−7 mol/L, in the presence of 20 mmol/L tetraethylammonium) was 0.99 ± 0.02. The “K+ current HP: −20 mV (delayed rectifier), relative value (before drug = 1)” value ([2]; Compound 1 1.0 × 10^−7 mol/L) was 1.02 ± 0.01, the “K+ current HP: −20 mV (delayed rectifier), relative value (before drug = 1)” value ([2]; Compound 1 1.0 × 10^−8 mol/L) was 0.98 ± 0.04 and the “K+ current HP: −20 mV (delayed rectifier), relative value (before drug = 1)” value ([2]; Compound 1 2.5 × 10^−8 mol/L) was 1.01 ± 0.03. For the same compound, the “K+ current HP: −20 mV, relative value” value ([2]; Compound 1 5.0 × 10^−4 mol/L, in the presence of 5 μmol/L verapamil) was 0.83 ± 0.06, the “K+ current HP: −20 mV, relative value” value ([2]; Compound 1 5.0 × 10^−4 mol/L, in the presence of 20 mmol/L tetraethylammonium) was 0.25 ± 0.04 and the “K+ current HP: −20 mV, relative value” value ([2]; Compound 1 5.0 × 10^−4 mol/L, in the presence of 60 mmol/L tetraethylammonium) was 0.54 ± 0.02. For the same compound, the “K+ current HP: −20 mV, relative value” value ([2]; Compound 1 5.0 × 10^−5 mol/L, in the presence of 5 μmol/L verapamil) was 0.98 ± 0.01, the “K+ current HP: −20 mV, relative value” value ([2]; Compound 1 5.0 × 10^−5 mol/L, in the presence of 20 mmol/L tetraethylammonium) was 0.84 ± 0.06 and the “K+ current HP: −20 mV, relative value” value ([2]; Compound 1 5.0 × 10^−5 mol/L, in the presence of 60 mmol/L tetraethylammonium) was 0.95 ± 0.03. For the same compound, the “K+ current HP: −20 mV (delayed rectifier), relative value (before drug = 1)” value ([2]; Compound 1 5.0 × 10^−5 mol/L) was 0.81 ± 0.08, the “K+ current HP: −20 mV, relative value” value ([2]; Compound 1 5.0 × 10^−6 mol/L, in the presence of 5 μmol/L verapamil) was 1.01 ± 0.01 and the “K+ current HP: −20 mV, relative value” value ([2]; Compound 1 5.0 × 10^−6 mol/L, in the presence of 20 mmol/L tetraethylammonium) was 0.98 ± 0.01. For the same compound, the “K+ current HP: −20 mV, relative value” value ([2]; Compound 1 5.0 × 10^−6 mol/L, in the presence of 60 mmol/L tetraethylammonium) was 0.97 ± 0.02, the “K+ current HP: −20 mV, relative value” value ([2]; Compound 1 5.0 × 10^−7 mol/L, in the presence of 5 μmol/L verapamil) was 1.00 ± 0.01 and the “K+ current HP: −20 mV, relative value” value ([2]; Compound 1 5.0 × 10^−7 mol/L, in the presence of 20 mmol/L tetraethylammonium) was 1.01 ± 0.01. The “K+ current HP: −20 mV, relative value” value ([2]; Compound 1 5.0 × 10^−7 mol/L, in the presence of 60 mmol/L tetraethylammonium) was 0.97 ± 0.03, the “K+ current HP: −20 mV (delayed rectifier), relative value (before drug = 1)” value ([2]; Compound 1 5.0 × 10^−7 mol/L) was 1.01 ± 0.02 and the “K+ current HP: −20 mV, relative value” value ([2]; Compound 1 5.0 × 10^−8 mol/L, in the presence of 5 μmol/L verapamil) was 1.00 ± 0.00. For the same compound, the “K+ current HP: −20 mV, relative value” value ([2]; Compound 1 5.0 × 10^−8 mol/L, in the presence of 20 mmol/L tetraethylammonium) was 0.99 ± 0.01, the “K+ current HP: −20 mV, relative value” value ([2]; Compound 1 5.0 × 10^−8 mol/L, in the presence of 60 mmol/L tetraethylammonium) was 1.00 ± 0.01 and the “K+ current HP: −20 mV (delayed rectifier), relative value (before drug = 1)” value ([2]; Compound 1 5.0 × 10^−8 mol/L) was 1.00 ± 0.01. For the same compound, the “K+ current HP: −20 mV, relative value” value ([2]; Compound 1 5.0 × 10^−9 mol/L, in the presence of 20 mmol/L tetraethylammonium) was 0.99 ± 0.00 and the “K+ current HP: −20 mV (delayed rectifier), relative value (before drug = 1)” value ([2]; Compound 1 5.0 × 10^−9 mol/L) was 0.98 ± 0.02.
